{"source": "paper PMC4012458", "about": "“Action of Clathrodin and Analogues on Voltage-Gated Sodium Channels” (Marine Drugs, 2014)", "key": {"NaV1.4": {"target": "T1, NaV1.4 (Rattus norvegicus, UniProt P15390)", "T1 construct": "gene Scn4a", "T1 sequence (P15390 whole entry)": "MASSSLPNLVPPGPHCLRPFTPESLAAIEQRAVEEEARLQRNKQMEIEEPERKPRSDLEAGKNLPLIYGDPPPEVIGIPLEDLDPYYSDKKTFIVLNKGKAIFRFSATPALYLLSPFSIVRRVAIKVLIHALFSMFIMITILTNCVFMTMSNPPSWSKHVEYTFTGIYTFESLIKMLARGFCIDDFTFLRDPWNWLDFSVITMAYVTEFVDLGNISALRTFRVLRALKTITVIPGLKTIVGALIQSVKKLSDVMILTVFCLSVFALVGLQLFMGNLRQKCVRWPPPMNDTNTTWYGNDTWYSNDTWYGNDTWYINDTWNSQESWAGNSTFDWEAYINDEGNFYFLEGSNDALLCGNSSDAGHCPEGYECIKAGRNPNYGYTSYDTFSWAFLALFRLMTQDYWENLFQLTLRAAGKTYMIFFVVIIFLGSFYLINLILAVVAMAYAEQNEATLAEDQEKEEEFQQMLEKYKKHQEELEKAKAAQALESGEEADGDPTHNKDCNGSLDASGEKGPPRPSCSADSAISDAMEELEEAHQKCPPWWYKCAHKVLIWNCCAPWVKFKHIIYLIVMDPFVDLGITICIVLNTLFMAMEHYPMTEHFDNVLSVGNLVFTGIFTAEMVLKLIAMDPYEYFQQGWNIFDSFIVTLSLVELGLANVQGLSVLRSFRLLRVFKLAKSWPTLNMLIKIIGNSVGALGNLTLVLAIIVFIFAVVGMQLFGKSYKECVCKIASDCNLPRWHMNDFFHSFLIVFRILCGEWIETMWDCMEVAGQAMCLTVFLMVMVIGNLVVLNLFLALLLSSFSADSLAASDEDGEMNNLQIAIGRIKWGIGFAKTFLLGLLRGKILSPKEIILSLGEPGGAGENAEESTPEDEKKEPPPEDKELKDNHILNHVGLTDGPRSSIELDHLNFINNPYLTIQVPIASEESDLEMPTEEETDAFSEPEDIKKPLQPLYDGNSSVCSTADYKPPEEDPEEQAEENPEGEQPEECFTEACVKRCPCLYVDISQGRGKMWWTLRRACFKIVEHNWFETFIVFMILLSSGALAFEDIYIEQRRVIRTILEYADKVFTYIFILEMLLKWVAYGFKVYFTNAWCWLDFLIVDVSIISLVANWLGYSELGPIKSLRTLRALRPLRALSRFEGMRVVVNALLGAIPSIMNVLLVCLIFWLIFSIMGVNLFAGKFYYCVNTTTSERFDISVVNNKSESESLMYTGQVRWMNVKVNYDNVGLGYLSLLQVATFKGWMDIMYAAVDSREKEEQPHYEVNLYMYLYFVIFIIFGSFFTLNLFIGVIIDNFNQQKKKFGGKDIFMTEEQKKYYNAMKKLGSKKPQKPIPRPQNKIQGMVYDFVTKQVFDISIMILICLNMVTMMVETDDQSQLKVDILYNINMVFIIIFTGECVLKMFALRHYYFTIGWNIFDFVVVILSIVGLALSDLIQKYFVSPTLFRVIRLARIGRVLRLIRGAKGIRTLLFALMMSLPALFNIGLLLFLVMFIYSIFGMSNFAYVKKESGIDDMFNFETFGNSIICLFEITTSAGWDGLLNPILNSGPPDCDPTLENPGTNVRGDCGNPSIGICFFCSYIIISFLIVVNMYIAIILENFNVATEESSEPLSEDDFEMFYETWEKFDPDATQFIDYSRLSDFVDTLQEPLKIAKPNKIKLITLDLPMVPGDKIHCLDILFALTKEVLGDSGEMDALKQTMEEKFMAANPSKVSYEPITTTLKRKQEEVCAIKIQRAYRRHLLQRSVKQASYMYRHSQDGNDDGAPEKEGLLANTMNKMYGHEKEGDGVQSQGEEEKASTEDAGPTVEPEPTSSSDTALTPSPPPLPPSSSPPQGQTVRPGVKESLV", "assay": "two-electrode voltage clamp in Xenopus oocytes, concentration-response; also QPatch patch clamp", "assay_type": "cell-based"}, "NaV1.5": {"target": "T2, NaV1.5 (Homo sapiens, UniProt Q14524)", "T2 construct": "gene SCN5A", "T2 sequence (Q14524 whole entry)": "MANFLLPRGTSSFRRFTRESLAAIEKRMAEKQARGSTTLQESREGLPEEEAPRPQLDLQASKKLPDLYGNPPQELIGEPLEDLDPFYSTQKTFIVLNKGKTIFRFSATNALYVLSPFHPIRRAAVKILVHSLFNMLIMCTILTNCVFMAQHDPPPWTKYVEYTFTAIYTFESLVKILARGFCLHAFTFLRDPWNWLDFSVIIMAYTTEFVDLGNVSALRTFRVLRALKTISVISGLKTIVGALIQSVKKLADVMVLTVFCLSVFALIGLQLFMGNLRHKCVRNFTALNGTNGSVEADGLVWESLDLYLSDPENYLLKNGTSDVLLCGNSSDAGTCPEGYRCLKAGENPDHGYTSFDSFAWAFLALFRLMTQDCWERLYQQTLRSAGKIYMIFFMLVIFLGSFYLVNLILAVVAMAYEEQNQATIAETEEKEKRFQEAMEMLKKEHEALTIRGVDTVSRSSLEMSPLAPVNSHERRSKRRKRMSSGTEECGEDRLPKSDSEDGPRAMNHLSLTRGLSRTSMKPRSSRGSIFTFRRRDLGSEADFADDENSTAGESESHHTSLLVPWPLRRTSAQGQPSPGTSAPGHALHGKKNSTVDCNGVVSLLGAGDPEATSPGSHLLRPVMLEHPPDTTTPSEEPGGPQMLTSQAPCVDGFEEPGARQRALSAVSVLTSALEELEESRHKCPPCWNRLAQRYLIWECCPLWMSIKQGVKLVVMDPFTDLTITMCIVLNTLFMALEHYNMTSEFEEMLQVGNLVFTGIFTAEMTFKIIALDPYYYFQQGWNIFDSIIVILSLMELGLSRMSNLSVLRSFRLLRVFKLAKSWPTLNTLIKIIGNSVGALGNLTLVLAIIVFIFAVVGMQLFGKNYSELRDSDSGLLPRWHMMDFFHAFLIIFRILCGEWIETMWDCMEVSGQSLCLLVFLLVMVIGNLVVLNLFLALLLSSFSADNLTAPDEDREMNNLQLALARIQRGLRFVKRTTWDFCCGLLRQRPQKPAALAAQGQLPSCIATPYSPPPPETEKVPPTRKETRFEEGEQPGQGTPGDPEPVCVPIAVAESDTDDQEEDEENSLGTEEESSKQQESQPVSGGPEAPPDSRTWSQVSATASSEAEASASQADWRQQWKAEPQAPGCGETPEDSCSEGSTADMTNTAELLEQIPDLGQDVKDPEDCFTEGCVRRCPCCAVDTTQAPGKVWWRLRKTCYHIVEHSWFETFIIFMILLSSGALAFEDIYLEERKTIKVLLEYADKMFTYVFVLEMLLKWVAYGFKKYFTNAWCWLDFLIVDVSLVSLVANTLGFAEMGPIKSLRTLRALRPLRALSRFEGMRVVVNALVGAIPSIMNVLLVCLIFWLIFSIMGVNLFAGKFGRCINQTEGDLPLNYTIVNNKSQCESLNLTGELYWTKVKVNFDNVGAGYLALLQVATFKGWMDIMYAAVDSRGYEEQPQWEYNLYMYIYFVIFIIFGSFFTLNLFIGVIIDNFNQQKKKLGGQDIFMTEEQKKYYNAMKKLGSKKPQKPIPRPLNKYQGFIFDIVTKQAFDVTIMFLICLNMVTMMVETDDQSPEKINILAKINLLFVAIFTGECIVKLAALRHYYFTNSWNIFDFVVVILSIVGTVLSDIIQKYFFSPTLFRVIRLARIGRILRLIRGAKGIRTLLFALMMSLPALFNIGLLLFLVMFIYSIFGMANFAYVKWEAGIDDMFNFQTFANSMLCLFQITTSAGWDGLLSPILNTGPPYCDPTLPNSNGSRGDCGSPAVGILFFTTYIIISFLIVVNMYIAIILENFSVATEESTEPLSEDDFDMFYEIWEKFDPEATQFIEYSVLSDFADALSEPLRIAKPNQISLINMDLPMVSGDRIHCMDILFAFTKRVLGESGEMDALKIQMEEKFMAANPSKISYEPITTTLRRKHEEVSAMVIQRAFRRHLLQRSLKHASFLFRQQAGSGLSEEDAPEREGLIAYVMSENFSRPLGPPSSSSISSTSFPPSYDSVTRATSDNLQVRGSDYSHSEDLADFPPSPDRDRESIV", "assay": "two-electrode voltage clamp in Xenopus oocytes, […] inhibition at […]", "assay_type": "cell-based"}}}
{"smiles": "Nc1nc(-c2cccc(NC(=O)c3c[nH]c4ccccc34)c2)c[nH]1", "note": "[compound 9, Compound 9]", "values": [{"measurement": "IC50", "setting": "NaV1.4", "result": "3.5 ± 0.9", "unit": "µM"}, {"measurement": "inhibition at 1 µM", "setting": "NaV1.5", "result": "19.6 ± 1.3", "unit": "%"}]}
